The structures appear in SMILES notation. Values joined by “and” are separate entries in the source; they are usually repeats but may differ in a detail not shown here. Equal values may be shown once. Active and inactive are the calls of the source. How the calls were made is not given here.

For this assay, the target named is Serine/threonine-protein kinase PLK1 (Homo sapiens) (UniProt P53350). Nature of the assay: Plk1 PBD phosphopeptide interaction blockers – biochemical, fluorescence polarization, synthesized analogs, IC50, SAR follow-up (AID 1082). The conditions noted are these: PLK1 PBD phosphopeptide binding. (In fluorescence polarisation assays a small probe gives low polarisation when free and higher when bound to something large.)
Chain of Serine/threonine-protein kinase PLK1 (Homo sapiens) (P53350 whole entry, looked up): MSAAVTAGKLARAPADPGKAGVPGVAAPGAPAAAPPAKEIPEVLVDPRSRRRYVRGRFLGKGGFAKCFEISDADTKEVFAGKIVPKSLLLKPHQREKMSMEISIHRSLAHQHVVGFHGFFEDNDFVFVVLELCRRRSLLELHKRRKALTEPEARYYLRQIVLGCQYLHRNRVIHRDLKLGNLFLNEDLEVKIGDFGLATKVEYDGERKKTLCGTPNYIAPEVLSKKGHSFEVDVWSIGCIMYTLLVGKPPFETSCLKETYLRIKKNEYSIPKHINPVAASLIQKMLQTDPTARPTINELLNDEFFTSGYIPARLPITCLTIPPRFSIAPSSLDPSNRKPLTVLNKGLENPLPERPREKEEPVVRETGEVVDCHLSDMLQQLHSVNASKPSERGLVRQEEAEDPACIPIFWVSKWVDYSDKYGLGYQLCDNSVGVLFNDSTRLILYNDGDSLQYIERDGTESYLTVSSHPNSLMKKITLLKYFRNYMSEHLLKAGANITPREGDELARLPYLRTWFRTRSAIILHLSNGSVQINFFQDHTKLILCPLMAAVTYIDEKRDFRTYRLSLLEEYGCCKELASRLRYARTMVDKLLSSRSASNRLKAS
The IC50 is the midpoint of a concentration-inhibition curve. Turning to `CCOC(=O)c1ccc(NS(=O)(=O)c2c(N)n(C)c(=O)n(C)c2=O)cc1`, the IC50 is > 50 µM (inactive). As to `O=C(Nc1ccccc1)c1c(O)[nH]c(=S)[nH]c1=O`, the IC50 was > 50 µM (inactive). For `CCC(=O)Oc1ccc(C(=O)Nc2c[nH]c(=O)[nH]c2=O)cc1`, the IC50 is > 50 µM (inactive). As to `CCOC(=O)CCCCCNC(=O)c1c(N)n(C)c(=O)n(C)c1=O`, the IC50 was > 50 µM (inactive). The figure for `O=C(Nc1ccccc1)c1c(O)[nH]c(=O)[nH]c1=O` is > 50 µM (inactive). For `O=c1[nH]c(=S)[nH]c(O)c1/C=N/Nc1ccccc1`, the IC50 was > 50 µM (inactive). For the molecule `CC1(C)CC(=O)C(C2(O)C(=O)NC(=O)NC2=O)=C(O)C1`, the IC50 is > 50 µM (inactive). Then `CCCCOC(=O)c1ccc(NC(=O)c2c(O)[nH]c(=O)[nH]c2=O)cc1`, with > 50 µM (inactive); and `Cn1c(N)c(S(=O)(=O)Nc2ccccc2)c(=O)n(C)c1=O`, with > 50 µM (inactive). With `CCOC(=O)c1cccc(NC(=O)c2c(O)[nH]c(=O)[nH]c2=O)c1`, the IC50 is > 50 µM (inactive). As to `CCOC(=O)c1ccc(NC(=O)c2c(N)n(C)c(=O)n(C)c2=O)cc1`, the IC50 is > 50 µM (inactive). Then `CCOC(=O)c1cccc(NC(=O)c2c(N)n(C)c(=O)[nH]c2=O)c1`, with > 50 µM (inactive); and `Cn1c2c(c(=O)n(C)c1=O)C(c1ccc(C(F)(F)F)cc1)CC(=O)N2` (stereo not given), with > 50 µM (inactive). For the molecule `CCOC(=O)c1ccc(NC(=O)c2c(N)n(C)c(=O)[nH]c2=O)cc1`, the IC50 is > 50 µM (inactive). The figure for `O=c1[nH]c(NC2CCCCC2)c([N+](=O)[O-])c(=O)[nH]1` is > 50 µM (inactive); for `O=C(N/N=C/c1c(O)[nH]c(=O)[nH]c1=O)c1ccncc1` it is > 50 µM (inactive); for `COC(=O)c1ccccc1NC(=O)c1c(O)c2c([nH]c1=O)CCCC2` it is > 50 µM (inactive). Then `CCOC(=O)c1ccc(NC(=O)c2c(O)[nH]c(=O)[nH]c2=O)cc1`, with > 50 µM (inactive) and 2.89 µM; and `CCOc1ccc(NC(=O)c2c(N)n(C)c(=O)[nH]c2=O)cc1`, with > 50 µM (inactive); and `Cc1ccc(NC(=O)c2c[nH]c(=O)[nH]c2=O)cc1`, with > 50 µM (inactive). For the molecule `CCOC(=O)c1ccccc1NC(=O)c1c(O)[nH]c(=O)[nH]c1=O`, the IC50 is > 50 µM (inactive). Turning to `Cn1cc(C(=O)CNc2ccccc2)c(=O)n(C)c1=O`, the IC50 is > 50 µM (inactive). Then `Cc1ccc(N=Cc2c(O)n(-c3ccc(C)cc3)c(=O)[nH]c2=O)cc1`, with > 50 µM (inactive); and `CCOC(=O)c1ccccc1NC(=O)c1c(N)n(C)c(=O)[nH]c1=O`, with > 50 µM (inactive). For the molecule `COc1ccc(/C=C/C(=O)c2c(O)n(CCC3=CCCCC3)c(=O)[nH]c2=O)cc1`, the IC50 is > 50 µM (inactive).

For `CCOc1ccc(NC(=O)c2c(O)[nH]c(=O)[nH]c2=O)cc1`, the IC50 is > 50 µM (inactive). As to `Cn1c(N)c(C(=O)Nc2ccccc2)c(=O)[nH]c1=O`, the IC50 is > 50 µM (inactive).

On to `CCOC(=O)c1ccccc1NC(=O)c1c(O)[nH]c(=S)[nH]c1=O`, for which the IC50 is > 50 µM (inactive).

For the molecule `CC(C)c1ccc(NC(=O)COC(=O)c2c[nH]c(=O)[nH]c2=O)cc1`, the IC50 is > 50 µM (inactive).

Take `CCOC(=O)c1ccc(NC(=O)c2c(NCc3ccccc3)[nH]c(=O)[nH]c2=O)cc1`: the IC50 was > 50 µM (inactive). On to `CCOC(=O)c1cccc(NC(=O)c2c(NCc3ccccc3)[nH]c(=O)[nH]c2=O)c1`, for which the IC50 is > 50 µM (inactive). The figure for `CCOC(=O)c1ccc(NC(=O)c2c(N)n(Cc3ccccc3)c(=O)[nH]c2=O)cc1` is > 50 µM (inactive); for `CCCCOC(=O)c1ccc(NC(=O)c2c(N)n(C)c(=O)[nH]c2=O)cc1` it is > 50 µM (inactive); for `CCCOc1ccc(C(=O)Nc2c[nH]c(=O)[nH]c2=O)cc1` it is > 50 µM (inactive). Regarding `CCOC(=O)c1ccc(NS(=O)(=O)c2c(N)[nH]c(=O)[nH]c2=O)cc1`, the IC50 is > 50 µM (inactive).

The values are drawn from PubChem BioAssay AID1082 (University of Pittsburgh Molecular Library Screening Center, 2008).
